Biological target: T1, human TGR5 (h-TGR5) (Homo sapiens, UniProt Q8TDU6)
T1 construct: expressed in transfected cells
T1 sequence (Q8TDU6 1-330): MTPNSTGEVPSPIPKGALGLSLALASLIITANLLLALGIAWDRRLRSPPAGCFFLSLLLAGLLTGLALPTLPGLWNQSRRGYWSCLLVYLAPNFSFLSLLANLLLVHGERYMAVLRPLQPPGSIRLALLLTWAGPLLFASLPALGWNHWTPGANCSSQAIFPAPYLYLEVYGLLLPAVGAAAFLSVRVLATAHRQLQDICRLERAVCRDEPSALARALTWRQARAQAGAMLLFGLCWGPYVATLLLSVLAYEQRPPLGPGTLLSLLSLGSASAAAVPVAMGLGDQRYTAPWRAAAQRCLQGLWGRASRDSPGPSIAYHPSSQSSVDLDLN
Assay: TGR5/CRE-Luciferiase Assay (HEK 293 hTGR5/CRE-Luc cells)
Type: cell-based
Settings: h-TGR5 CRE-Luc EC50, Table 1; read-out: CRE-Luc (EC50)
In short: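 HEK293 cells stably carrying hTGR5 and a CRE-luciferase reporter were exposed to serially diluted compounds (diluted in DMEM with 5% DMSO) for 6 h. Cells were then lysed in luciferase buffer, luminescence was read, and EC50 values were derived from dose-response curves.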

EC50 | SMILES
1000 to 10000 nM | COc1ccc(-c2cnc(SCc3ccc(F)cc3Cl)n2-c2ccc(F)cc2)cc1OC [5-[3,4-bis(methyloxy)phenyl]-2-{[(2-chloro-4-fluorophenyl)methyl]thio}-1-(4-fluorophenyl)-1H-imidazole]
1000 to 10000 nM | COc1ccc(-c2cnc(SCc3c(F)cccc3Cl)n2-c2ccc(F)cc2)cc1OC [5-[3,4-bis(methyloxy)phenyl]-2-{[(2-chloro-6-fluorophenyl)methyl]thio}-1-(4-fluorophenyl)-1H-imidazole]
< 100 nM | COc1ccc(C(C)(C)c2cnc(SCc3c(F)cc(-c4nnn[nH]4)cc3F)n2-c2ccc(F)cc2)cc1Cl [5-[4-({[5-{1-[3-chloro-4-(methyloxy)phenyl]-1-methylethyl}-1-(4-fluorophenyl)-1H-imidazol-2-yl]thio}methyl)-3,5-difluorophenyl]-1H-tetrazole]
100 to 1000 nM | CC(C)(c1ccc(Cl)c(Cl)c1)c1cnc(SCc2ccc(OCCCO)c(C#N)c2)n1-c1ccc(F)cc1 [5-[({5-[1-(3,4-dichlorophenyl)-1-methylethyl]-1-(4-fluorophenyl)-1H-imidazol-2-yl}thio)methyl]-2-[(3-hydroxypropyl)oxy]benzonitrile]
100 to 1000 nM | CC(C)(c1ccc(Cl)c(Cl)c1)c1cnc(SCc2ccc(F)c(C(=O)NCC(F)(F)F)c2)n1-c1ccc(F)cc1 [5-[({5-[1-(3,4-dichlorophenyl)-1-methylethyl]-1-(4-fluorophenyl)-1H-imidazol-2-yl}thio)methyl]-2-fluoro-N-(2,2,2-trifluoroethyl)benzamide]
100 to 1000 nM | CC(C)(O)CNC(=O)c1cc(CSc2ncc(C(C)(C)c3ccc(Cl)c(Cl)c3)n2-c2ccc(F)cc2)ccc1F [5-[({5-[1-(3,4-dichlorophenyl)-1-methylethyl]-1-(4-fluorophenyl)-1H-imidazol-2-yl}thio)methyl]-2-fluoro-N-(2-hydroxy-2-methylpropyl)benzamide]
100 to 1000 nM | CC(C)(c1ccc(Cl)c(Cl)c1)c1cnc(SCc2ccc(F)c(C(=O)NCCN3CCOCC3)c2)n1-c1ccc(F)cc1 [5-[({5-[1-(3,4-dichlorophenyl)-1-methylethyl]-1-(4-fluorophenyl)-1H-imidazol-2-yl}thio)methyl]-2-fluoro-N-(2-morpholin-4-ylethyl)benzamide]
100 to 1000 nM | CC(C)(c1ccc(Cl)c(Cl)c1)c1cnc(SCc2ccc(F)c(C(=O)NCCc3c[nH]cn3)c2)n1-c1ccc(F)cc1 [5-[({5-[1-(3,4-dichlorophenyl)-1-methylethyl]-1-(4-fluorophenyl)-1H-imidazol-2-yl}thio)methyl]-2-fluoro-N-[2-(1H-imidazol-4-yl)ethyl]benzamide]
100 to 1000 nM | COCCNC(=O)c1cc(CSc2ncc(C(C)(C)c3ccc(Cl)c(Cl)c3)n2-c2ccc(F)cc2)ccc1F [5-[({5-[1-(3,4-dichlorophenyl)-1-methylethyl]-1-(4-fluorophenyl)-1H-imidazol-2-yl}thio)methyl]-2-fluoro-N-[2-(methyloxy)ethyl]benzamide]
100 to 1000 nM | CC(C)(c1ccc(Cl)c(Cl)c1)c1cnc(SCc2ccc(F)c(C#N)c2)n1-c1ccc(F)cc1 [5-[({5-[1-(3,4-dichlorophenyl)-1-methylethyl]-1-(4-fluorophenyl)-1H-imidazol-2-yl}thio)methyl]-2-fluorobenzonitrile]
100 to 1000 nM | CCN(CC)CCOc1ccc(CSc2ncc(C(C)(C)c3ccc(Cl)c(Cl)c3)n2-c2ccc(F)cc2)cc1S(N)(=O)=O [5-[({5-[1-(3,4-dichlorophenyl)-1-methylethyl]-1-(4-fluorophenyl)-1H-imidazol-2-yl}thio)methyl]-2-{[2-(diethylamino)ethyl]oxy}benzenesulfonamide]
100 to 1000 nM | CC(C)(c1ccc(F)c(F)c1)c1cnc(SCc2ccc(F)c(C(=O)O)c2)n1-c1ccc(F)cc1 [5-[({5-[1-(3,4-difluorophenyl)-1-methylethyl]-1-(4-fluorophenyl)-1H-imidazol-2-yl}thio)methyl]-2-fluorobenzoic acid]
100 to 1000 nM | CC(C)(c1ccc(Cl)c(Cl)c1)c1cnc(COc2ccc(Cl)cn2)n1-c1ccc(F)cc1 [5-chloro-2-[({5-[1-(3,4-dichlorophenyl)-1-methylethyl]-1-(4-fluorophenyl)-1H-imidazol-2-yl}methyl)oxy]pyridine]
100 to 1000 nM | CC(C)(c1ccc(Cl)c(Cl)c1)c1cnc(SCc2ccc(Cl)cc2C(=O)O)n1-c1ccc(F)cc1 [5-chloro-2-[({5-[1-(3,4-dichlorophenyl)-1-methylethyl]-1-(4-fluorophenyl)-1H-imidazol-2-yl}thio)methyl]benzoic acid]
1000 to 10000 nM | COc1ccc(C(C)(C)c2cnc(C(=O)N3CCCC3)n2-c2ccc(F)cc2)cc1OC [5-{1-[3,4-bis(methyloxy)phenyl]-1-methylethyl}-1-(4-fluorophenyl)-2-(pyrrolidin-1-ylcarbonyl)-1H-imidazole]
< 100 nM | COc1ccc(C(C)(C)c2cnc(S(=O)(=O)CCc3ccc(F)cc3Cl)n2-c2ccc(F)cc2)cc1OC [5-{1-[3,4-bis(methyloxy)phenyl]-1-methylethyl}-2-{[2-(2-chloro-4-fluorophenyl)ethyl]sulfonyl}-1-(4-fluorophenyl)-1H-imidazole]
< 100 nM | COc1ccc(C(C)(C)c2cnc(S(=O)(=O)CCc3ccc(Cl)c(Cl)c3)n2-c2ccc(F)cc2)cc1OC [5-{1-[3,4-bis(methyloxy)phenyl]-1-methylethyl}-2-{[2-(3,4-dichlorophenyl)ethyl]sulfonyl}-1-(4-fluorophenyl)-1H-imidazole]
< 100 nM | COc1ccc(C(C)(C)c2cnc(S(=O)(=O)CCc3ccc(F)c(Cl)c3)n2-c2ccc(F)cc2)cc1OC [5-{1-[3,4-bis(methyloxy)phenyl]-1-methylethyl}-2-{[2-(3-chloro-4-fluorophenyl)ethyl]sulfonyl}-1-(4-fluorophenyl)-1H-imidazole]
< 100 nM | COc1ccc(C(C)(C)c2cnc(SCc3ccc(Cl)cc3Cl)n2-c2ccc(F)cc2)cc1OC [5-{1-[3,4-bis(methyloxy)phenyl]-1-methylethyl}-2-{[(2,4-dichlorophenyl)methyl]thio}-1-(4-fluorophenyl)-1H-imidazole]
< 100 nM | COc1ccc(C(C)(C)c2cnc(S(=O)(=O)Cc3c(F)cccc3Cl)n2-c2ccc(F)cc2)cc1OC [5-{1-[3,4-bis(methyloxy)phenyl]-1-methylethyl}-2-{[(2-chloro-6-fluorophenyl)methyl]sulfonyl}-1-(4-fluorophenyl)-1H-imidazole]
1000 to 10000 nM | COc1ccc(C(C)(C)c2c(-c3ccc(F)cc3)nc(SCc3c(F)cccc3Cl)n2C)cc1OC [5-{1-[3,4-bis(methyloxy)phenyl]-1-methylethyl}-2-{[(2-chloro-6-fluorophenyl)methyl]thio}-4-(4-fluorophenyl)-1-methyl-1H-imidazole]
< 100 nM | COc1ccc(C(C)(C)c2cnc(SCc3ccc(Cl)c(Cl)c3)n2-c2ccc(F)cc2)cc1OC [5-{1-[3,4-bis(methyloxy)phenyl]-1-methylethyl}-2-{[(3,4-dichlorophenyl)methyl]thio}-1-(4-fluorophenyl)-1H-imidazole]
< 100 nM | COc1ccc(C(C)(C)c2cnc(SCc3ccc(F)c(Cl)c3)n2-c2ccc(F)cc2)cc1OC [5-{1-[3,4-bis(methyloxy)phenyl]-1-methylethyl}-2-{[(3-chloro-4-fluorophenyl)methyl]thio}-1-(4-fluorophenyl)-1H-imidazole]

— patent publication US8785488B2 (Exelixis Patent Company LLC, priority 2009, dated 2014)
